Each molecule was assayed on CWR22RV1 cells (assay: Inhibition of proliferation of CWR22RV1 cells (CCK-8)). Details: Homo sapiens, CWR22Rv1, 144 h, 6 days.
Type: cell-based, human
Method: • CWR22RV1 cell line (Cell Bank of Chinese Academy of Sciences, TCHu100) • FBS (Gibco, Cat. No. 10099-141) • 0.01M PBS (Biosharp, Cat. No. 162262) • RIPM1640 (Hyclone, Cat. No. 308090.01) • Penicillin-Streptomycin (Hyclone, Cat. No. SV30010) • Cell counting kit-8 (Signalway Antibody, Cat. No. CP002) • DMSO (Sigma, Cat. No. D5879) • Centrifuge Tube, 15 ml (Excell Bio, Cat. No. CS015-0001) • Cell Culture Dish, (Excell Bio, Cat. No. CS016-0128) • 96-well cell culture cluster (Corning, Cat. No. 3599) • 2. Experimental method (1) Preparation of Buffer
1) CWR22RV1 cells were subcultured in cell culture medium, and the cells in good growth condition were seeded in a 96-well plate, 80 μL for each well, thus the number of cells per well was 1500, then the plate was cultured overnight in a 37° C., 5% CO2 cell incubator.
2) The drug was prepared with dimethyl sulfoxide (DMSO) as a 30 mM stock solution. Prior to use, the solution was diluted 3 times with DMSO, and then diluted with a 3-fold gradient to obtain 9 concentration gradients. Then, each concentration of the compound was further diluted 200 times with the culture solution (to ensure that DMSO concentration in the culture system was 0.1%), 2 repeat wells for each concentration. The diluted solution of each compound (20 μL) was added to the cell culture well (with a final concentration of 10 μM, 3.3 μM, 1.1 μM . . . ), and shaken gently for mixing. In addition, three negative control wells containing only cells and three blank control wells containing only culture medium (20 μL DMSO diluted 200 times with culture medium being added to six wells) were included.
(1) After culturing for 6 days, 10 μL CCK-8 was added to each well and cultured for additional 2.5 h in a 37° C., 5% CO2 cell incubator.
(2) The absorbance (OD value) at 450 nm was measured with a multifunctional microplate reader.
(3) The data was analyzed by the Dose-response-inhibition equation in the software GraphPad Prism6, and the IC50 value was obtained.
For Cn1cc(-c2cc(S(C)(=O)=O)ccc2N2CCC3(CC2)CC3C(=O)O)c2cc[nH]c2c1=O (centres unmarked) [Compound 39, 6-(2-(6-methyl-7-oxo-6,7-dihydro-1H-pyrrolo[2,3-c]pyridin-4-yl)-4-(methylsulfonyl)phenyl)-6-aza-spiro[2.5]octan-1-carboxylic acid], the IC50 was 2410 nM.
For [2H]C([2H])([2H])n1cc(-c2cc(NS(=O)(=O)CC)ccc2N2CCC3(CC3)C2)c2cc[nH]c2c1=O [Compound 40, N-(3-(7-oxo-6-(trideuteromethyl)-6,7-dihydro-1H-pyrrolo[2,3-c]pyridin-4-yl)-4-(5-aza-spiro[2.4]heptan-5-yl)phenyl)ethylsulfonamide], the IC50 was 15 nM.
Molecule [2H]C([2H])([2H])n1cc(-c2cc(NS(=O)(=O)CC)ccc2N2CCCC3(CC3)C2)c2cc[nH]c2c1=O [Compound 42, N-(3-(6-trideuteromethyl-7-oxo-6,7-dihydro-1H-pyrrolo[2,3-c]pyridin-4-yl)-4-(5-aza-spiro[2.5]octan-5-yl)phenyl)ethylsulfonamide] has an IC50 of 30 nM.
Work on [2H]C([2H])([2H])n1cc(-c2cc(NS(=O)(=O)C3CC3)ccc2N2CC3(CCC3)C2)c2cc[nH]c2c1=O [Compound 43, N-(3-(6-trideuteromethyl-7-oxo-6,7-dihydro-1H-pyrrolo[2,3-c]pyridin-4-yl)-4-(2-aza-spiro[3.3]heptan-2-yl)phenyl)cyclopropanesulfonamide] yielded an IC50 of 50 nM.
[2H]C([2H])([2H])n1cc(-c2cc(NS(C)(=O)=O)ccc2N2CC3(CCC3)C2)c2cc[nH]c2c1=O [Compound 44, N-(3-(6-trideuteromethyl-7-oxo-6,7-dihydro-1H-pyrrolo[2,3-c]pyridin-4-yl)-4-(2-aza-spiro[3.3]heptan-2-yl)phenyl)methanesulfonamide] showed an IC50 of 45 nM.
In the case of [2H]C([2H])([2H])n1cc(-c2cc(NS(=O)(=O)C3COC3)ccc2N2CC3(CCC3)C2)c2cc[nH]c2c1=O [Compound 45, N-(3-(6-trideuteromethyl-7-oxo-6,7-dihydro-1H-pyrrolo[2,3-c]pyridin-4-yl)-4-(2-aza-spiro[3.3]heptan-2-yl)phenyl) oxetane-3-sulfonamide], the IC50 is reported as 110 nM.
[2H]C([2H])([2H])n1cc(-c2cc(NS(=O)(=O)CCCC)ccc2N2CC3(CCC3)C2)c2cc[nH]c2c1=O [Compound 46, N-(3-(6-trideuteromethyl-7-oxo-6,7-dihydro-1H-pyrrolo[2,3-c]pyridin-4-yl)-4-(2-aza-spiro[3.3]heptan-2-yl)phenyl)butane-1-sulfonamide] showed an IC50 of 130 nM.
For [2H]C([2H])([2H])n1cc(-c2cc(NS(=O)(=O)CC)ccc2N2CC3(CCC3)C2)c2cc[nH]c2c1=O [Compound 47, N-(3-(6-trideuteromethyl-7-oxo-6,7-dihydro-1H-pyrrolo[2,3-c]pyridin-4-yl)-4-(2-aza-spiro[3.3]heptan-2-yl)phenyl)ethanesulfonamide], the IC50 was 50 nM.
[2H]C([2H])([2H])n1cc(-c2cc(NS(C)(=O)=O)ccc2N2CC3(COC3)C2)c2cc[nH]c2c1=O [Compound 48, N-(3-(6-trideuteromethyl-7-oxo-6,7-dihydro-1H-pyrrolo[2,3-c]pyridin-4-yl)-4-(2-oxa-6-aza-spiro[3.3]heptan-6-yl)phenyl)methanesulfonamide] gave an IC50 of 400 nM.
Work on [2H]C([2H])([2H])n1cc(-c2cc(NS(=O)(=O)CC)ccc2N2CC3(COC3)C2)c2cc[nH]c2c1=O [Compound 49, N-(3-(6-trideuteromethyl-7-oxo-6,7-dihydro-1H-pyrrolo[2,3-c]pyridin-4-yl)-4-(2-oxa-6-aza-spiro[3.3]heptan-6-yl)phenyl)ethanesulfonamide] yielded an IC50 of 420 nM.
In the case of [2H]C([2H])([2H])n1cc(-c2cc(NS(=O)(=O)CCCC)ccc2N2CC3(COC3)C2)c2cc[nH]c2c1=O [Compound 50, N-(3-(6-trideuteromethyl-7-oxo-6,7-dihydro-1H-pyrrolo[2,3-c]pyridin-4-yl)-4-(2-oxa-6-aza-spiro[3.3]heptan-6-yl)phenyl) butane-1-sulfonamide], the IC50 is reported as 510 nM.
For [2H]C([2H])([2H])n1cc(-c2cc(NS(=O)(=O)C3CC3)ccc2N2CC3(COC3)C2)c2cc[nH]c2c1=O [Compound 51, N-(3-(6-trideuteromethyl-7-oxo-6,7-dihydro-1H-pyrrolo[2,3-c]pyridin-4-yl)-4-(2-oxa-6-aza-spiro[3.3]heptan-6-yl)phenyl) cyclopropanesulfonamide], the IC50 was 490 nM.
[2H]C([2H])([2H])n1cc(-c2cc(NS(=O)(=O)CC)ccc2N2CCC3(CC2)CC3C(=O)OCC)c2cc[nH]c2c1=O (centres unmarked) [Compound 52] was tested, and the IC50 was 520 nM.
With [2H]C([2H])([2H])n1cc(-c2cc(NS(=O)(=O)CC)ccc2N2CCC3(CC2)CC3C(=O)O)c2cc[nH]c2c1=O (centres unmarked) [Compound 53, 6-(4-(ethylsulfonamide)-2-(6-trideuteromethyl-7-oxo-6,7-dihydro-1H-pyrrolo[2,3-c]pyridin-4-yl)phenyl)-6-aza-spiro[2.5]octan-1-carboxylic acid] the IC50 was 550 nM.
With [2H]C([2H])([2H])n1cc(-c2cc(S(C)(=O)=O)ccc2N2CCC3(CC3)C2)c2cc[nH]c2c1=O [Compound 54, 6-trideuteromethyl-4-(5(methylsulfonyl)-2-(5-aza-spiro[2.4]heptan-5-yl)phenyl)-1H-pyrrolo[2,3-c]pyridin-7(6H)-one] the IC50 was 18 nM.
[2H]C([2H])([2H])n1cc(-c2cc(S(C)(=O)=O)ccc2N2CCCC3(CC3)C2)c2cc[nH]c2c1=O [Compound 57, 6-trideuteromethyl-4-(5(methylsulfonyl)-2-(5-aza-spiro[2.5]octan-5-yl)phenyl)-1H-pyrrolo[2,3-c]pyridin-7(6H)-one] showed an IC50 of 25 nM.
Molecule [2H]C([2H])([2H])n1cc(-c2cc(S(=O)(=O)C3CC3)ccc2N2CCCC3(CC3)C2)c2cc[nH]c2c1=O [Compound 58, 4-(5-(cyclopropylsulfonyl)-2-(5-aza-spiro[2.5]octan-5-yl)phenyl)-6-trideuteromethyl-1H-pyrrolo[2,3-c]pyridin-7(6H)-one] has an IC50 of 50 nM.
[2H]C([2H])([2H])n1cc(-c2cc(S(=O)(=O)C3CC3)ccc2N2CC3(CCC3)C2)c2cc[nH]c2c1=O [Compound 59, 4-(5-(cyclopropylsulfonyl)-2-(2-aza-spiro[3.3]heptan-2-yl)phenyl)-6-trideuteromethyl-1H-pyrrolo[2,3-c]pyridin-7(6H)-one] was tested, and the IC50 was 65 nM.
In the case of [2H]C([2H])([2H])n1cc(-c2cc(S(C)(=O)=O)ccc2N2CC3(CCC3)C2)c2cc[nH]c2c1=O [Compound 60, 6-trideuteromethyl-4-(5-(methylsulfonyl)-2-(2-aza-spiro[3.3]heptan-2-yl)phenyl)-1H-pyrrolo[2,3-c]pyridin-7(6H)-one], the IC50 is reported as 39 nM.
In the case of [2H]C([2H])([2H])n1cc(-c2cc(S(=O)(=O)C3COC3)ccc2N2CC3(CCC3)C2)c2cc[nH]c2c1=O [Compound 61, 6-trideuteromethyl-4-(5-(oxetane-3-ylsulfonyl)-2-(2-aza-spiro [3.3]heptan-2-yl)phenyl)-1H-pyrrolo[2,3-c]pyridin-7(6H)-one], the IC50 is reported as 105 nM.
Molecule [2H]C([2H])([2H])n1cc(-c2cc(S(=O)(=O)CCCC)ccc2N2CC3(CCC3)C2)c2cc[nH]c2c1=O [Compound 62] has an IC50 of 130 nM.
[2H]C([2H])([2H])n1cc(-c2cc(S(=O)(=O)CC)ccc2N2CC3(CCC3)C2)c2cc[nH]c2c1=O [Compound 63, 4-(5-(ethylsulfonyl)-2-(2-aza-spiro[3.3]heptan-2-yl)phenyl)-6-trideuteromethyl-1H-pyrrolo[2,3-c]pyridin-7(6H)-one] gave an IC50 of 60 nM.
[2H]C([2H])([2H])n1cc(-c2cc(S(C)(=O)=O)ccc2N2CC3(COC3)C2)c2cc[nH]c2c1=O [Compound 64, 6-trideuteromethyl-4-(5-(methylsulfonyl)-2-(2-oxa-6-aza-spiro[3.3]heptan-6-yl)phenyl)-1H-pyrrolo[2,3-c]pyridin-7(6H)-one] gave an IC50 of 380 nM.
[2H]C([2H])([2H])n1cc(-c2cc(S(=O)(=O)CC)ccc2N2CC3(COC3)C2)c2cc[nH]c2c1=O [Compound 65, 4-(5-(ethylsulfonyl)-2-(2-oxa-6-aza-spiro[3.3]heptan-6-yl)phenyl)-6-trideuteromethyl-1H-pyrrolo[2,3-c]pyridin-7(6H)-one] was tested, and the IC50 was 410 nM.
For [2H]C([2H])([2H])n1cc(-c2cc(S(=O)(=O)CCCC)ccc2N2CC3(COC3)C2)c2cc[nH]c2c1=O [Compound 66, 4-(5-(butylsulfonyl)-2-(2-oxa-6-aza-spiro[3.3]heptan-6-yl)phenyl)-6-trideuteromethyl-1H-pyrrolo[2,3-c]pyridin-7(6H)-one], the IC50 was 520 nM.
With [2H]C([2H])([2H])n1cc(-c2cc(S(=O)(=O)C3CC3)ccc2N2CC3(COC3)C2)c2cc[nH]c2c1=O [Compound 67, 4-(5-(cyclopropylsulfonyl)-2-(2-oxa-6-aza-spiro[3.3]heptan-6-yl)phenyl)-6-trideuteromethyl-1H-pyrrolo[2,3-c]pyridin-7(6H)-one] the IC50 was 490 nM.

Reference: patent publication US12162878B2 (HINOVA PHARMACEUTICALS INC., priority 2018, dated 2024)
